According to patent US12458650B2, “Urination disorder-improving agent” (ASKA Pharmaceutical Co., Ltd., priority 2019, dated 2025):

Legend:
[1] = test system: lower urinary tract obstruction model of rats; test: Test Example 1: urination function in female rat lower urinary tract obstruction model (cystometry, tissue wet weights, survival); format: in vivo; conditions: Group A: 10 mg/kg oral once a day, 2 weeks
From the text: (§1) A lower urinary tract obstruction model of rats was used as a test system. A test substance was orally administered to the lower urinary tract obstruction model repeatedly over two (2) weeks to examine the action on the urination function in the lower urinary tract obstruction model.
More specifically, the rats (female, Crl:CD(SD), 8-week-old; Charles River Laboratories Japan, Inc.) were operated to form lower urinary tract obstruction and repeatedly received oral administration of the test substance at a frequency of once a day over two (2) weeks. After the completion of the administration, each rat was subjected to bladder catheterization under anesthesia, cystometry under no anesthesia, then cystometry under urethane anesthesia, and euthanasia under deep anesthesia, and the tissues (bladder, kidney) of the rat were extracted or surgically removed. As a normal group, the rats without operation for forming lower urinary tract obstruction were used.
The test system, the test substances, and the dosage are as follows. • Normal group: 0.5 v/v. Polysorbate 80 solution, 10 mL/kg (n=6) • Solvent group (control group): 0.5 v/v % Polysorbate 80 solution, 10 mL/kg (n=15) • Group A: Compound A, 10 mg/kg (n=15) • Group B3: Compound B, 3 mg/kg (n=7) • Group B10: Compound B, 10 mg/kg (n=7)
The residual urine volume, the urination efficiency, and the bladder capacity were measured as follows.
After urination, the residual urine was aspirated from the outlet end of the catheter placed in the bladder to measure the volume (mL) of the residual urine.
After urination, the weight of the voided urine was measured to determine the voided volume (g=mL), and then the urination efficiency was calculated by the following equation: Urination efficiency (%)=[(Voided volume (mL))/(Voided volume (mL)+Residual urine volume (mL))]×100 [Bladder Capacity]
The bladder capacity was calculated from the voided volume and the residual urine volume by the following equation: Bladder capacity(mL)=Voided volume (mL)+Residual urine volume (mL)
Moreover, the wet weight of the extracted bladder and that of the extracted kidney were measured.

[2] = test system: lower urinary tract obstruction model of rats; test: Test Example 2: urination function in male rat lower urinary tract obstruction model (cystometry under no anesthesia); format: in vivo; conditions: Group A: 10 mg/kg oral once a day, 14 days, in comparison with Group C (dutasteride 0.5 mg/kg), FIG. 7, 8
From the text: as §1, with “14 days” for “two (2) weeks”, “model. The lower urinary tract obstruction model is not a benign prostatic hyperplasia model with enlarged prostate.” for “model.”
More specifically, the rats (male, Crl:CD(SD), 8-week-old; Charles River Laboratories Japan, Inc.) were operated to form lower urinary tract obstruction and repeatedly received oral administration of the test substance at a frequency of once a day over 14 days. After the completion of the administration, each rat was subjected to bladder catheterization under anesthesia and cystometry under no anesthesia and was evaluated for the residual urine volume and the urination efficiency.
The test substances and the dosage in the test system (male rats with lower urinary tract obstruction) are as follows. • Solvent group (control group): 0.5 v/v % Polysorbate 80 solution, 10 mL/kg (n=8) • Group A: Compound A, 10 mg/kg (n=12) • Group C: Compound C (dutasteride), 0.5 mg/kg (n=11) • Dutasteride is a 5a reductase inhibitor.

[3] = test system: model of a urination disorder associated with streptozocin-induced diabetes; test: Test Example 6: urination disorder model associated with streptozocin-induced diabetes, compound A versus dutasteride; format: in vivo, rat
Method: As described below, a model of a urination disorder associated with streptozocin-induced diabetes was prepared as a urination disorder model in accordance with Test Example 4 to evaluate the effects of the compound A and the compound C on a urination disorder. This model has no benign prostatic hyperplasia and is a model of a urination disorder associated with neuropathy and smooth muscle contraction disorder.
The body weights of Rats (male, Crl:CD(SD), 5-week-old; Charles River Laboratories Japan, Inc.) were measured. On the basis of the body weight, the rats were grouped or divided into two (2) groups. The day after the rats were grouped, a fist group received intraperitoneal administration of a citrate buffer (pH 4.5) (10 mL/kg) having a concentration of 0.1 mmol/L, and a second group received intraperitoneal administration of streptozocin (STZ; Sigma-Aldrich) (50 mg/kg). Streptozocin (STZ) was administered in the form of a solution of streptozocin having a concentration of 5 mg/mL in the citrate buffer.
About one (1) week after streptozocin (STZ) was administered, the body weight and the fasting blood glucose were measured. In the streptozocin (STZ) administration group (the second group), individuals having a fasting blood glucose level of not less than 300 mg/dL were used as animals with induced diabetes. These animals with induced diabetes are a model having no abnormality of the prostate (having no benign prostatic hyperplasia). On the basis of the body weight and the fasting blood glucose level, the animals (models) with induced diabetes were grouped or divided into three (3) groups by randomized, multivariable block allocation.
To the three model groups with induced diabetes, a 0.5 v/v % Polysorbate 80 solution (0.5% P) (10 mL/kg), the compound A (3 mg/kg), and the compound C (dutasteride) (0.3 mg/kg) were orally administered, respectively, wherein the administration schedule in all groups was a frequency of once a day, only on weekdays, over four (4) weeks. Moreover, to the above-mentioned first group, a 0.5 v/v % Polysorbate 80 solution (0.5% P) (10 mL/kg) was orally administered in the same administration schedule (normal group). On the last day of administration, a cannula was inserted into and secured to the dome of the bladder under isoflurane anesthesia, and cystometry (Cystometogram, CMG) was conducted in the order of under awake condition and under urethane anesthesia to measure the intravesical pressure, the voided volume, and the residual urine volume. After the completion of the measurement, the blood was collected under deep isoflurane anesthesia, and then the prostate (ventral prostate, dorsolateral prostate) was extracted and each was weighed. Moreover, the blood glucose level in the collected blood was measured.
The test substances and the dosage in the test system (rats having the urination disorder associated with diabetes) are as follows. • Normal group: citrate buffer 10 mL/kg (intraperitoneal administration), 0.5% P 10 mL/kg (oral administration) (n=10) • Solvent group (control group): STZ 50 mg/kg (intraperitoneal administration), 0.5% P 10 mL/kg (oral administration) (n=10) • Group A3: STZ 50 mg/kg (intraperitoneal administration), Compound A 3 mg/kg (oral administration) (n=10) • Group C0.3: STZ 50 mg/kg (intraperitoneal administration), Compound C (dutasteride) 0.3 mg/kg (oral administration) (n=10)
Urination parameter: In the same manner as in Test Example 4, the residual urine volume (mL) and the urination efficiency % were determined as urination parameters in each urination, and the average value of two measurements was taken as a measured value of each individual.
Prostate weight: In the same manner as in Test Example 4, the weight of the prostate (ventral prostate, dorsolateral prostate, and whole) was converted to a tissue weight per 100 g of the body weight. […]

[4] = Group A3: 3 mg/kg oral, 4 weeks, relative to solvent group

**Q.** CC(=O)O[C@]1(C(C)=O)C[C@@H](O)[C@H]2[C@@H]3C=C(Cl)C4=CC(=O)OC[C@]4(C)[C@H]3CC[C@@]21C [Compound A, 17α-acetoxy-6-chloro-15β-hydroxy-2-oxa-4,6-pregnadiene-3,20-dione] was tested. Which bladder wet weight ([1]; FIG. 4) did it give?
**A.** Its bladder wet weight is “significantly inhibiting the increase”.

**Q.** What about the kidney wet weight ([1]; FIG. 5) of the same compound?
**A.** Its kidney wet weight is “significantly inhibiting the increase”.

**Q.** And the survival rate ([1]; FIG. 6)?
**A.** Its survival rate is “no decrease”.

**Q.** And the residual urine volume ([1]; vs control (solvent) group, FIG. 1)?
**A.** Its residual urine volume is “significantly decreased”.

**Q.** What about the urination efficiency ([1]; vs control group, FIG. 2) of the same compound?
**A.** The urination efficiency was “increased”.

**Q.** What about the bladder capacity ([1]; vs control group, FIG. 3) of the same compound?
**A.** The bladder capacity was “significantly decreased”.

**Q.** What about the “urination function (the residual urine volume, the urination efficiency)” value [2] of the same compound?
**A.** Its value is “strong improvement action”.

**Q.** What about the “therapeutic effect on diabetes (blood glucose level)” value ([3]; Group A3: 3 mg/kg oral, 4 weeks) of the same compound?
**A.** The value was “no therapeutic effect on diabetes”.

**Q.** What about the “Dorsolateral prostate (atrophy rate)” value [3, 4] of the same compound?
**A.** The value was “(40.2%)”.

**Q.** What about the “Ventral prostate (atrophy rate)” value [3, 4] of the same compound?
**A.** Its value is “(40.0%)”.

**Q.** And the “Whole prostate (atrophy rate)” value [3, 4]?
**A.** The value was “(40.1%)”.

**Q.** What about the residual urine volume ([3]; Group A3: 3 mg/kg, cystometry under awake condition, vs solvent group (p<0.05), FIG. 19) of the same compound?
**A.** Its residual urine volume is “significantly decreased”.

**Q.** What about the urination efficiency ([3]; Group A3: 3 mg/kg, cystometry under awake condition, vs solvent group (p<0.05), FIG. 20) of the same compound?
**A.** The urination efficiency was “significantly improved”.

**Q.** What about the “bladder contraction force on urination by nomogram analysis” value ([3]; Group A3: 3 mg/kg, in comparison with the solvent group and Group C0.3, FIG. 21) of the same compound?
**A.** The value was “strong bladder contraction force”.
